The test system of experiment [1] is Rattus norvegicus. Kind of experiment: Antihypertensive activity on spontaneously hypertensive rats, when administered orally at a dose 15 mg/kg. Type of experiment: functional. To be noted: route oral.
In experiment [2] the target is T1, Adrenergic receptor alpha-1 (Rattus norvegicus, UniProt P15823+P23944+P43140).
T1 sequence (P15823 whole entry): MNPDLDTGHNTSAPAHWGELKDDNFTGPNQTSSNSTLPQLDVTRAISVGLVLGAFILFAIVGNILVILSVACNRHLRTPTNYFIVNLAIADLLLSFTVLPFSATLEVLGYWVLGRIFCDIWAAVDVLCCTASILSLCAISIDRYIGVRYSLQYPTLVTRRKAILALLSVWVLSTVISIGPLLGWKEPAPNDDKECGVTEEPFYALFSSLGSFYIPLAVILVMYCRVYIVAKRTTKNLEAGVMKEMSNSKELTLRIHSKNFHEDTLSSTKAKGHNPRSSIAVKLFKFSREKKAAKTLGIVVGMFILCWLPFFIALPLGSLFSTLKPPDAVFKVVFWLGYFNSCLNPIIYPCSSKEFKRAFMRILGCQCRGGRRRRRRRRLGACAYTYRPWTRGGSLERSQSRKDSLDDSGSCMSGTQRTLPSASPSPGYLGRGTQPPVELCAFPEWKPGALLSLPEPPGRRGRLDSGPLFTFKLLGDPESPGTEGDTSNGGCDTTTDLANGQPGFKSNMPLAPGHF
T1 sequence (P23944 whole entry): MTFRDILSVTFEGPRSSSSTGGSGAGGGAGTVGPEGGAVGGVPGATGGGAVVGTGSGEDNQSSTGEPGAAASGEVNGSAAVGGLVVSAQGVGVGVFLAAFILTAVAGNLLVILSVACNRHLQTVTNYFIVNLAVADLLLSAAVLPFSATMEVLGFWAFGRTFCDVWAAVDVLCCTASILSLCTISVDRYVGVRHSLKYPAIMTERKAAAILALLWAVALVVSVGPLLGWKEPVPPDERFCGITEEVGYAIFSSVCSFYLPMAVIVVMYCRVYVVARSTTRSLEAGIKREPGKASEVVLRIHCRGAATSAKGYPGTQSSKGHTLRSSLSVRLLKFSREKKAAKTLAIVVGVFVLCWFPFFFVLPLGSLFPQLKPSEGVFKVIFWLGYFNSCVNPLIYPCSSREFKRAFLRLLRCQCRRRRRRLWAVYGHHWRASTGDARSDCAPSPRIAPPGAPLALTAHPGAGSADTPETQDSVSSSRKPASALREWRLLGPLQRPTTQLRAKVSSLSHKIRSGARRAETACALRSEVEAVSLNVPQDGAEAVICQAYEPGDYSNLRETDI
T1 sequence (P43140 whole entry): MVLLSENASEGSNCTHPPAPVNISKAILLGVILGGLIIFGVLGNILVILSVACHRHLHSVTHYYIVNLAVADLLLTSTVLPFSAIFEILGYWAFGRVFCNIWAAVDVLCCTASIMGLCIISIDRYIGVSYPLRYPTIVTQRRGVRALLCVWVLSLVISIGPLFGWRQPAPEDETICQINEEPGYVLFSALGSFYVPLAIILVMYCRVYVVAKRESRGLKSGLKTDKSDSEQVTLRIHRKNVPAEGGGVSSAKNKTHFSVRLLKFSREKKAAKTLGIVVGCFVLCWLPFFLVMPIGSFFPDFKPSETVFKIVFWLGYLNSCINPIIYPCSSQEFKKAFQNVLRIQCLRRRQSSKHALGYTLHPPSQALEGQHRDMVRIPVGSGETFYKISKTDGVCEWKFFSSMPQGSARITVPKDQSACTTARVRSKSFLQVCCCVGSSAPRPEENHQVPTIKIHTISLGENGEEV
Kind of experiment: Ability to displace [3H]prazosin from postsynaptic alpha-1 adrenergic receptor of rat in vitro. The experiment is classed as protein assay.

Experiment [3] has as its system Canis familiaris. Kind of experiment: Heart rate after 2 hours of oral administration in renal hypertensive dogs at dose 0.5 mg/kg. Type of experiment: functional, Canis lupus familiaris.
Experiment [4] deals with Canis familiaris. Kind of experiment: Systolic blood pressure after 6 hr of oral administration in renal hypertensive dogs at dose 0.1 mg/kg. Type of experiment: functional, Canis lupus familiaris.
For experiment [5], the system named is Canis familiaris. Kind of experiment: Heart rate after 8 hours of oral administration in renal hypertensive dogs at dose 0.3 mg/kg. The experiment is classed as functional, Canis lupus familiaris.
Experiment [6] has as its system Canis familiaris. Kind of experiment: Systolic blood pressure after 4 hr of oral administration in renal hypertensive dogs at dose 0.1 mg/kg. The experiment is classed as functional, Canis lupus familiaris.
The test system of experiment [7] is Canis familiaris. Kind of experiment: Systolic blood pressure after 2 hours of oral administration in renal hypertensive dogs at dose 0.1 mg/kg. The experiment is classed as functional, Canis lupus familiaris.
In experiment [8] the test system is Canis familiaris. Kind of experiment: Systolic blood pressure after 0 hours of oral administration in renal hypertensive dogs at dose 0.5 mg/kg. The experiment is classed as functional, Canis lupus familiaris.
Experiment [9] relates to Canis familiaris. Kind of experiment: Heart rate after 4 hours of oral administration in renal hypertensive dogs at dose 0.1 mg/kg. Type of experiment: functional, Canis lupus familiaris.
Experiment [10] deals with Canis familiaris. Kind of experiment: Heart rate after 0 hours of oral administration in renal hypertensive dogs at dose 0.1 mg/kg. Type of experiment: functional, Canis lupus familiaris.
For experiment [11], the system named is Canis familiaris. Kind of experiment: Systolic blood pressure after 2 hr of oral administration in renal hypertensive dogs at dose 0.5 mg/kg. Type of experiment: functional, Canis lupus familiaris.
The subject of experiment [12] is Canis familiaris. Kind of experiment: Systolic blood pressure after 8 hr of oral administration in renal hypertensive dogs at dose 0.5 mg/kg. The experiment is classed as functional, Canis lupus familiaris.
Experiment [13] relates to Canis familiaris. Kind of experiment: Heart rate after 0 hours of oral administration in renal hypertensive dogs at dose 0.5 mg/kg. The experiment is classed as functional, Canis lupus familiaris.
Experiment [14] has as its system Canis familiaris. Kind of experiment: Systolic blood pressure after 0 hours of oral administration in renal hypertensive dogs at dose 0.1 mg/kg. The experiment is classed as functional, Canis lupus familiaris.
Experiment [15] relates to Canis familiaris. Kind of experiment: Heart rate after 8 hours of oral administration in renal hypertensive dogs at dose 0.1 mg/kg. Type of experiment: functional, Canis lupus familiaris.
The test system of experiment [16] is Canis familiaris. Kind of experiment: Peak effect after 2-4 hours systolic blood pressure after 7 days of oral administration in renal hypertensive dogs at dose 0.3 mg/kg. The experiment is classed as functional, Canis lupus familiaris, Artery.
For experiment [17], the system named is Canis familiaris. Kind of experiment: Systolic blood pressure after 6 hr of oral administration in renal hypertensive dogs at dose 0.5 mg/kg. Type of experiment: functional, Canis lupus familiaris.
In experiment [18] the test system is Canis familiaris. Kind of experiment: Systolic blood pressure after 2 hours of oral administration in renal hypertensive dogs at dose 0.3 mg/kg. The experiment is classed as functional, Canis lupus familiaris.
Experiment [19] deals with Canis familiaris. Kind of experiment: Heart rate after 0 hours of oral administration in renal hypertensive dogs at dose 0.3 mg/kg. The experiment is classed as functional, Canis lupus familiaris.
For experiment [20], the system named is Canis familiaris. Kind of experiment: Peak effect after 2-4 hours systolic blood pressure after 2 day of oral administration in renal hypertensive dogs at dose 0.3 mg/kg. Type of experiment: functional, Canis lupus familiaris, Artery.
The subject of experiment [21] is Canis familiaris. Kind of experiment: Systolic blood pressure after 8 hr of oral administration in renal hypertensive dogs at dose 0.1 mg/kg. Type of experiment: functional, Canis lupus familiaris.
In experiment [22] the test system is Canis familiaris. Kind of experiment: Systolic blood pressure after 0 hours of oral administration in renal hypertensive dogs at dose 0.3 mg/kg. Type of experiment: functional, Canis lupus familiaris.
For experiment [23], the system named is Canis familiaris. Kind of experiment: Peak effect after 2-4 hours systolic blood pressure after 1 days of oral administration in renal hypertensive dogs at dose 0.3 mg/kg. The experiment is classed as functional, Canis lupus familiaris, Artery.
Experiment [24] relates to Canis familiaris. Kind of experiment: Heart rate after 6 hours of oral administration in renal hypertensive dogs at dose 0.3 mg/kg. The experiment is classed as functional, Canis lupus familiaris.
Experiment [25] deals with Canis familiaris. Kind of experiment: Systolic blood pressure after 4 hr of oral administration in renal hypertensive dogs at dose 0.3 mg/kg. Type of experiment: functional, Canis lupus familiaris.
The subject of experiment [26] is Canis familiaris. Kind of experiment: Heart rate after 6 hours of oral administration in renal hypertensive dogs at dose 0.1 mg/kg. Type of experiment: functional, Canis lupus familiaris.
Experiment [27] concerns Canis familiaris. Kind of experiment: Heart rate after 8 hours of oral administration in renal hypertensive dogs at dose 0.5 mg/kg. Type of experiment: functional, Canis lupus familiaris.
The test system of experiment [28] is Canis familiaris. Kind of experiment: Systolic blood pressure after 6 hr of oral administration in renal hypertensive dogs at dose 0.3 mg/kg. Type of experiment: functional, Canis lupus familiaris.
For experiment [29], the system named is Canis familiaris. Kind of experiment: Peak effect after 2-4 hours systolic blood pressure after 3 days of oral administration in renal hypertensive dogs at dose 0.3 mg/kg. The experiment is classed as functional, Canis lupus familiaris, Artery.
Experiment [30] relates to Canis familiaris. Kind of experiment: Heart rate after 6 hours of oral administration in renal hypertensive dogs at dose 0.5 mg/kg. Type of experiment: functional, Canis lupus familiaris.
Experiment [31] has as its system Canis familiaris. Kind of experiment: Heart rate after 2 hours of oral administration in renal hypertensive dogs at dose 0.3 mg/kg. Type of experiment: functional, Canis lupus familiaris.
Experiment [32] has as its system Canis familiaris. Kind of experiment: Heart rate after 4 hours of oral administration in renal hypertensive dogs at dose 0.5 mg/kg. Type of experiment: functional, Canis lupus familiaris.
Experiment [33] concerns Canis familiaris. Kind of experiment: Heart rate after 2 hours of oral administration in renal hypertensive dogs at dose 0.1 mg/kg. Type of experiment: functional, Canis lupus familiaris.
Experiment [34] concerns Canis familiaris. Kind of experiment: Systolic blood pressure after 8 hr of oral administration in renal hypertensive dogs at dose 0.3 mg/kg. Type of experiment: functional, Canis lupus familiaris.
Experiment [35] concerns Canis familiaris. Kind of experiment: Heart rate after 4 hours of oral administration in renal hypertensive dogs at dose 0.3 mg/kg. The experiment is classed as functional, Canis lupus familiaris.
Experiment [36] concerns Canis familiaris. Kind of experiment: Systolic blood pressure after 4 hr of oral administration in renal hypertensive dogs at dose 0.5 mg/kg. The experiment is classed as functional, Canis lupus familiaris.
Experiment [37] deals with Rattus norvegicus. Kind of experiment: Antihypertensive activity on spontaneously hypertensive rats, when administered orally at a dose 30 mg/kg. Type of experiment: functional. To be noted: route oral.

Where “and” joins values, the source holds several entries; their conditions need not be identical. Identical values can stand only once.

Take `Cl.Clc1ccc(-c2[nH]nc3c2CNCC3)cc1`: in the experiment with Rattus norvegicus [1], the Delta p was 0%. Moreover, the Ki in experiment [2] was 145 nM.

Regarding `COc1cc2nc(N3CCN(C(=O)c4ccco4)CC3)nc(N)c2cc1OC` [PRAZOSIN], the Heart rate in the experiment on Canis familiaris [3] was 94 beats min-1; in the experiment on Canis familiaris [5], 100%; with Canis familiaris [9] it was 94%; with Canis familiaris [10] it was 104 beats min-1; in the experiment on Canis familiaris [13], 86 beats min-1; in the experiment on Canis familiaris [15], 106%. The Heart rate in the experiment with Canis familiaris [19] is 110 beats min-1; in the experiment with Canis familiaris [24], 90%; in the experiment on Canis familiaris [26], 96%; in the experiment with Canis familiaris [27] it was 82 beats min-1; in the experiment on Canis familiaris [30], 78 beats min-1; with Canis familiaris [31] it was 114%. Also, the Heart rate is reported as 82% with Canis familiaris [32], 92% in the experiment on Canis familiaris [33] and 100% in the experiment on Canis familiaris [35]. Also, the Blood pressure in the experiment with Canis familiaris [4] came out at 193 mmHg; in the experiment with Canis familiaris [6], 180 mmHg; in the experiment with Canis familiaris [7], 186 mmHg; with Canis familiaris [8] it was 190 mmHg; in the experiment on Canis familiaris [11], 135 mmHg; in the experiment on Canis familiaris [12] it was 150 mmHg. In addition, the Blood pressure is 205 mmHg in the experiment on Canis familiaris [14]; 100% with Canis familiaris [16]; 125 mmHg in the experiment with Canis familiaris [17]; 182 mmHg with Canis familiaris [18]; 100% and 92% in the experiment with Canis familiaris [20]; 196 mmHg with Canis familiaris [21]. Further, the Blood pressure in the experiment with Canis familiaris [22] came out at 202 mmHg; in the experiment with Canis familiaris [23], 96%; with Canis familiaris [25] it was 160 mmHg; in the experiment on Canis familiaris [28] it was 165 mmHg; in the experiment on Canis familiaris [29], 96%; in the experiment on Canis familiaris [34] it was 180 mmHg. Further, in the experiment with Canis familiaris [36], the Blood pressure came to 125 mmHg.

On to `CCn1nc(-c2ccc(F)cc2)c2c1CCN(C)C2.CS(=O)(=O)O`, for which the Delta p in the experiment with Rattus norvegicus [37] was -37%. Moreover, in [2], the inhibitory constant (Ki) is 362 nM.

Broadly, the Ki is a measure of affinity in units of concentration, obtained from inhibition or displacement. Low values mean a stronger hold on the target, high ones a looser hold on the target.
